In brackets after ≈: the same amount, converted by molar mass. Structures can show the parent of a compound that is named as a salt. Where two headings read alike, the source gives them in different places. Values belong to the compound of their own block, whether it stands above or below them.
Legend:
[1] = system: Staphylococcus aureus (S. aureus FDA209P); experiment: Sensitivity Test 1: antibacterial activity (MIC) by micro-dilution method; format: cell-based
Method: (§1) Test compounds were initially dissolved in dimethylsulfoxide. Antibacterial activities (MICs) of the same compounds were determined by the micro-dilution method as recommended by the Japanese Society of Chemotherapy.
(§2) Staphylococcus aureus (S. aureus FDA209P) was used as the test organism. The bacterial cells were grown overnight at 35° C. on Mueller-Hinton agar (MHA) plates. The bacterial cells were then suspended in sterile saline and adjusted to the turbidity of a 0.5 McFarland standard. The inoculum was prepared by 10-fold dilution of this suspension. Approximately 0.005 mL aliquots of the inoculum prepared above were subsequently inoculated into Cation-adjusted Mueller-Hinton broth (CAMHB, 100 μL/well) including the test compounds for overnight incubation at 35° C.

[2] = system: Methicillin-resistant Staphylococcus aureus (S. aureus F-3095); experiment: Sensitivity Test 2: antibacterial activity (MIC) by micro-dilution method; format: cell-based
Method: as §1, §2
Methicillin-resistant Staphylococcus aureus (S. aureus F-3095) was used as the test organism. Antibacterial activities (MICs) were determined in the same manner as in Test Example 1.

Vero cells = experiment: Cytotoxicity Test (XTT) on Vero cells; format: cell-based; conditions: 51.2 μg/mL of test compound, 3 days at 37° C., XTT absorbance ratio of treated to untreated well
Method: Test compounds were initially dissolved in dimethylsulfoxide. […]. After incubation, absorbance was read at 450 nm and 655 nm in a spectrophotometric microplate reader. The values were expressed as the ratio between the value for the well treated with 51.2 μg/mL of each test compound and the value for the well untreated with the test compound (T/C).

S. aureus Smith = experiment: Infection Test: mice infected intraperitoneally with S. aureus Smith; format: in vivo; conditions: ICR mice, 5 per group; S. aureus Smith i.p.; 10 mg/kg subcutaneously once at 1 hour after infection; survivors recorded 3 days after infection
Method: S. aureus Smith which was grown overnight at 37° C. on Mueller-Hinton agar (MHA) plates were suspended to give a final concentration of 10^9 CFU/mL. The inoculum was prepared by diluting this suspension 10-fold in 1/15 mol/L phosphate buffer (pH 7) containing 5.6% mucin. ICR mice (4 to 4.5 weeks of age, male, 5 mice per group) were intraperitoneally administered with the inoculum (approximately 2×10^7 CFU per mice) to induce infection.
After dissolving the test compounds in 0.1 mol/L hydrochloric acid, 20% 2-hydroxypropyl-β-cyclodextrin (HP-β-CD) or a mixture of 20% HP-β-CD and 0.1 mol/L hydrochloric acid at a proportion of 1:1 was added to give a final concentration of 1 mg/mL. Each of the test compound solutions (10 mg/kg) was subcutaneously administered once to a group of mice at 1 hour after infection. The control group was administered with 10% HP-β-CD. The mice were observed daily and the number of surviving mice in each group was recorded 3 days after infection.

[3] = S. aureus FDA209P, CAMHB, overnight incubation at 35° C., lowest concentration with virtually no growth, read-out: MIC
[4] = Methicillin-resistant S. aureus F-3095, same manner as in Test Example 1, read-out: MIC

- MIC [1, 3]: 0.0156 µg/mL (≈ 0.0334 µM)
- MIC [2, 4]: 0.0625 µg/mL (≈ 0.134 µM)
SMILES: COc1ccc2ncc(=O)n(CCC3(O)CCC(NCc4cc5c(cn4)OCCO5)CC3)c2c1 (single isomer, unassigned) [389(B), 1-(2-(4-((2,3-dihydro(1,4)dioxino(2,3-c)pyridin-7-ylmethyl)amino)-1-hydroxycyclohexyl)ethyl)-7-methoxyquinoxalin-2(1H)-one]
- T/C (Vero cells): >50%

SMILES: COc1ccc2c(C)cc(=O)n(CCN3CCC(NCc4ccc5c(c4)OCCO5)CC3)c2c1 [Example 2, 1-(2-(4-((2,3-dihydro-1,4-benzodioxin-6-ylmethyl)amino)piperidin-1-yl)ethyl)-7-methoxy-4-methylquinolin-2(1H)-one]
- MIC [1, 3]: 0.0313 µg/mL (≈ 0.0675 µM)
- MIC [2]: 0.0313 µg/mL (≈ 0.0675 µM)
- Number of surviving mice (S. aureus Smith): 4

- MIC [1, 3]: 0.25 µg/mL (≈ 0.499 µM)
SMILES: COc1ccc2c(C)cc(=O)n(CCCC3(C(=O)O)CCN(CCSc4cccs4)CC3)c2c1 [Example 7, 4-(3-(7-methoxy-4-methyl-2-oxoquinolin-1(2H)-yl)propyl)-1-(2-(2-thienylthio)ethyl)piperidine-4-carboxylic acid]
- T/C (Vero cells): >50%

SMILES: CNC(=O)c1cc(=O)n(CCN2CCC(NCc3ccc4c(c3)OCCO4)CC2)c2cc(OC)ccc12 [Example 25, 1-(2-(4-((2,3-dihydro-1,4-benzodioxin-6-ylmethyl)amino)piperidin-1-yl)ethyl)-7-methoxy-N-methyl-2-oxo-1,2-dihydroquinoline-4-carboxamide]
- MIC [1, 3]: 0.0625 µg/mL (≈ 0.123 µM)
- MIC [2, 4]: 0.125 µg/mL (≈ 0.247 µM)
- T/C (Vero cells): >50%
- Number of surviving mice (S. aureus Smith): 5

- MIC [1, 3]: 0.0625 µg/mL
SMILES: O=c1ccc2ccccc2n1CCN1CCC(NCc2ccc3c(c2)OCCO3)CC1 [Example 63, 1-(2-(4-(2,3-dihydro-1,4-benzodioxin-6-ylmethyl)amino)piperidin-1-yl)ethyl)-quinolin-2(1H)one hydrochloride]
- T/C (Vero cells): >50%

- MIC [1, 3]: 0.0156 µg/mL (≈ 0.0346 µM)
- MIC [2, 4]: 0.0156 µg/mL (≈ 0.0346 µM)
SMILES: COc1ccc2ccc(=O)n(CCN3CCC(NCc4cc5c(cn4)OCCO5)CC3)c2c1 [Example 64, 1-(2-(4-((2,3-dihydro(1,4)dioxino(2,3-c)pyridin-7-ylmethyl)amino)piperidin-1-yl)ethyl)-7-methoxyquinolin-2(1H)-one]

SMILES: COc1ccc2ncc(=O)n(CCN3CCC(NCc4ccc5c(c4)NC(=O)CO5)CC3)c2c1 [Example 90, 6-(((1-(2-(7-methoxy-2-oxoquinoxaline-1-(2H)-yl)ethyl)piperidin-4-yl)amino)methyl)-2H-1,4-benzooxazine-3(4H)-one]
- MIC [1, 3]: 0.0313 µg/mL (≈ 0.0675 µM)
- MIC [2, 4]: 0.0625 µg/mL (≈ 0.135 µM)
- T/C (Vero cells): >50%
- Number of surviving mice (S. aureus Smith): 5

SMILES: COc1ccc2ncc(=O)n(CCN3CCC(NCc4ccc5c(c4)NC(=O)CS5)CC3)c2c1 [Example 91, 6-(((1-(2-(7-methoxy-2-oxoquinoxaline-1-(2H)-yl)ethyl)piperidin-4-yl)amino)methyl)-2H-1,4-benzothiazine-3(4H)-one]
- MIC [1, 3]: 0.0313 µg/mL (≈ 0.0653 µM)
- MIC [2, 4]: 0.0313 µg/mL (≈ 0.0653 µM)
- Number of surviving mice (S. aureus Smith): 5

SMILES: COc1ccc2ncc(=O)n(CCN3CCC(NCc4ccc5c(c4)OCCO5)CC3)c2c1 [Example 117, 1-(2-(4-((2,3-dihydro-1,4-benzodioxin-6-ylmethyl)amino)piperidin-1-yl)ethyl)-7-methoxyquinoxalin-2(1H)-one hydrochloride]
- MIC ([1]; FDA209P): 0.0313 µg/mL
- MIC [2]: 0.0313 µg/mL
- Number of surviving mice (S. aureus Smith): 5

SMILES: COCCNC(=O)c1cc(=O)n(CCN2CCC(NCc3ccc4c(c3)OCCO4)CC2)c2cc(OC)ccc12 [Example 141, 1-(2-(4-((2,3-dihydro-1,4-benzodioxin-6-ylmethyl)amino)piperidin-1-yl)ethyl)-7-methoxy-N-(2-methoxyethyl)-2-oxo-1,2-dihydroquinoline-4-carboxamide hydrochloride]
- MIC ([1]; FDA209P): 0.125 µg/mL
- MIC [2]: 0.25 µg/mL
- T/C (Vero cells): >50%
- Number of surviving mice (S. aureus Smith): 5

SMILES: COc1ccc2ncc(=O)n(CCN3CCC(NCc4ccc5c(n4)NC(=O)CS5)CC3)c2c1 [Example 179, 6-(((1-(2-(7-methoxy-2-oxoquinoxalin-1(2H)-yl)ethyl)piperidin-4-yl)amino)methyl)-2H-pyrido(3,2-b)(1,4)thiazin-3(4H)-one]
- MIC [1, 3]: 0.0156 µg/mL (≈ 0.0325 µM)
- MIC [2, 4]: 0.0313 µg/mL (≈ 0.0651 µM)
- Number of surviving mice (S. aureus Smith): 5

SMILES: Nc1cccc2c1ccc(=O)n2CCN1CCC(NCc2ccc3c(c2)OCCO3)CC1 [Example 263, 1-(2-(4-((2,3-dihydro-1,4-benzodioxin-6-ylmethyl)amino)piperidin-1-yl)ethyl)-5-aminoquinolin-2(1H)-one hydrochloride]
- MIC ([1]; FDA209P): 0.125 µg/mL
- MIC [2]: 0.25 µg/mL
- T/C (Vero cells): >50%
- Number of surviving mice (S. aureus Smith): 5

SMILES: CNC(=O)c1cc(=O)n(CCN2CCC(NCc3ccc(C)c(F)c3)CC2)c2cc(OC)ccc12 [Example 340, 1-(2-(4-(3-fluoro-4-methylbenzylamino)piperidin-1-yl)ethyl)-7-methoxy-N-methyl-2-oxo-1,2-dihydroquinoline-4-carboxamide hydrochloride]
- MIC ([1]; FDA209P): 0.0313 µg/mL
- MIC [2]: 0.0625 µg/mL
- T/C (Vero cells): >50%
- Number of surviving mice (S. aureus Smith): 5

SMILES: CNC(=O)c1cc(=O)n(CCN2CCC(NCc3cc(-c4cccs4)on3)CC2)c2cc(OC)ccc12 [Example 341, 7-methoxy-N-methyl-2-oxo-1-(2-(4-((5-(thiophen-2-yl)isoxazol-3-yl)methylamino)piperidin-1-yl)ethyl)-1,2-dihydroquinoline-4-carboxamide hydrochloride]
- MIC ([1]; FDA209P): 0.0313 µg/mL
- MIC [2]: 0.0625 µg/mL
- T/C (Vero cells): >50%
- Number of surviving mice (S. aureus Smith): 5

SMILES: O=c1cnc2ccc(F)cc2n1CCN1CCC(NCc2cc3c(cn2)OCCO3)CC1 [Example 352, 1-(2-(4-((2,3-dihydro-1,4-dioxino[2,3-c]pyridin-7-yl)methylamino)piperidin-1-yl)ethyl)-7-fluoroquinoxalin-2(1H)-one hydrochloride]
- MIC ([1]; FDA209P): 0.0156 µg/mL
- MIC [2]: 0.0313 µg/mL
- T/C (Vero cells): >50%
- Number of surviving mice (S. aureus Smith): 5

SMILES: COc1ccc2ncc(=O)n(CCN3CCC(NCc4cc5c(cn4)OCCO5)CC3)c2c1 [Example 359, 1-(2-(4-((2,3-dihydro-1,4-dioxino[2,3-c]pyridin-7-yl)methylamino)piperidin-1-yl)ethyl)-7-methoxy-quinoxalin-2(1H)-one hydrochloride]
- MIC ([1]; FDA209P): 0.0313 µg/mL
- MIC [2]: 0.0313 µg/mL
- T/C (Vero cells): >50%
- Number of surviving mice (S. aureus Smith): 5

SMILES: Cc1ccc(CNC2CCN(CCn3c(=O)cnc4ccc(F)cc43)CC2)cc1F [Example 367, 1-(2-(4-((3-fluoro-4-methylbenzyl)amino)piperidin-1-yl)ethyl)-7-fluoroquinoxalin-2(1H)-one hydrochloride]
- MIC ([1]; FDA209P): 0.0156 µg/mL
- MIC [2]: 0.0156 µg/mL
- T/C (Vero cells): >50%
- Number of surviving mice (S. aureus Smith): 5

SMILES: O=C1CSc2ccc(CNC3CCN(CCn4c(=O)cnc5ccc(F)cc54)CC3)nc2N1 [Example 369, 7-fluoro-1-(2-(4-((3-oxo-3,4-dihydro-2H-pyrido[3,2-b][1,4]thiazin-6-yl)methylamino)piperidin-1-yl)ethyl)quinoxalin-2(1H)-one hydrochloride]
- MIC ([1]; FDA209P): 0.0313 µg/mL
- MIC [2]: 0.0313 µg/mL
- T/C (Vero cells): >50%
- Number of surviving mice (S. aureus Smith): 5

— US8524738B2, “Quinolinones and quinoxalinones as antibacterial composition” (Toyama Chemical Co., Ltd., priority 2005, dated 2013)
